# How the values were obtained:
# Scirpus juncoides = assay: Paddy pot test, herbicidal effect on Scirpus juncoides; assay type: in vivo; parameters: scale not given here; settings: Screening, 63 g/ha, examined after 3 weeks
# Summary of the method: (§1)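 Puddled paddy soil sown with barnyardgrass and Scirpus juncoides seeds. 2.5-leaf rice transplanted, pots flooded and kept in a greenhouse. Herbicidal effect (herbicidal index) and rice injury scored after 3 weeks.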
# Echinochloa crus-galli = assay: Paddy pot test, herbicidal effect on Echinochloa crus-galli; assay type: in vivo; parameters: scale not given here; settings: Screening, 63 g/ha, applied at 1.5-leaf stage, examined after 3 weeks
# Summary of the method: as §1
# rice plants = assay: Paddy pot test, harmful effects on transplanted rice plants; assay type: in vivo; parameters: scale not given here; settings: Screening, 63 g/ha, applied at Echinochloa crus-galli 1.5-leaf stage, examined after 3 weeks
# Summary of the method: as §1
Structure (SMILES),Scripus juncoides (herbicidal index) (Scirpus juncoides),melting point,Echinochloa crus-galli (herbicidal index) (Echinochloa crus-galli),"Rice (harmful effects on the rice plants, index) (rice plants)"
COc1ccc(C(=O)c2cnn(C)c2[O-])c(Cl)c1N=S1(=O)CCCCC1.[Na+] [Example 115],8,224 to 226 °C,10,0
C#CCOc1c(C(=O)c2ccc(OC)c(N=S3(=O)CCCCC3)c2Cl)cnn1C [Example 123],5,146 to 148 °C,7,0
COc1ccc(C(=O)c2cnn(C)c2O)c(Cl)c1N=S1(=O)CCCC1 [Example 126],8,134 to 136 °C,10,0
COc1ccc(C(=O)C2=C(O)CCCC2=O)c(Cl)c1N=S1(=O)CCCC1 [Example 127],8,153 to 155 °C,8,0
CCn1ncc(C(=O)c2ccc(OC)c(N=S3(=O)CCCC3)c2Cl)c1O [Example 128],8,171 to 173 °C,10,0
COc1c(N=S2(=O)CCCCC2)cccc1C(=O)c1cnn(C)c1O [Example 131],8,121 to 123 °C,6,0
COc1ccc(C(=O)c2cnn(C)c2O)c(OC)c1N=S1(=O)CCOCC1 [Example 133],7,72 to 74 °C,6,0
COc1c(C(=O)c2cnn(C)c2O)ccc(C)c1N=S1(=O)CCCCC1 [Example 135],7,85 to 87 °C,5,0
COc1ccc(C(=O)c2cnn(C)c2OC(=O)c2ccc([N+](=O)[O-])cc2)c(Cl)c1N=S1(=O)CCCCC1 [Example 139],8,151 to 154 °C,10,0
COc1ccc(C(=O)C2=C(O)CCCC2=O)c(Cl)c1N=S(C)(C)=O [Example 149],6,150 to 152 °C,5,0
COc1ccc(C(=O)c2cnn(C)c2O)c(Cl)c1N=S(C)(C)=O [Example 150],8,164 to 166 °C,5,0
COc1ccc(C(=O)c2cnn(C)c2OC(=O)SC)c(Cl)c1N=S1(=O)CCCCC1 [Example 154],8,163 to 165 °C,10,0
COC(=O)c1ccc(C(=O)c2cnn(C)c2O)c(Cl)c1N=S(C)(C)=O [Example 161],8,115 to 125 °C,9,0
O=C1CCCC(O)=C1C(=O)c1ccc(OC(F)F)c(N=S2(=O)CCCCC2)c1Cl [Example 179],7,125 to 127 °C,7,1
Cn1ncc(C(=O)c2ccc(OC(F)F)c(N=S3(=O)CCCCC3)c2Cl)c1O [Example 181],9,158 to 161 °C,10,0
CCn1ncc(C(=O)c2ccc(C#N)c(N=S3(=O)CCCCC3)c2Cl)c1O [Example 187],5,159 to 161 °C,10,0
Cc1c(N=S2(=O)CCCCC2)cccc1C(=O)c1cnn(C)c1O [Example 191],7,166 to 168 °C,6,0
CSC(=O)Oc1c(C(=O)c2cccc(N=S3(=O)CCCCC3)c2C)cnn1C [Example 193],7,149 to 151 °C,6,0
Cn1ncc(C(=O)c2cccc(N=S3(=O)CCCCC3)c2Br)c1O [Example 196],8,177 to 179 °C,6,0
COc1ccc(C(=O)c2cnn(C)c2O)c(OC)c1N=S1(=O)CCCC1 [Example 198],7,151 to 153 °C,5,0
CC(C)c1ccc(C(=O)c2cnn(C)c2O)c(Cl)c1N=S1(=O)CCCCC1 [Example 208],7,102 to 104 °C,8,0
COc1ccc(C(=O)c2cnn(C)c2O)c(Cl)c1N=S(C)(=O)C(C)C (stereo not shown) [Example 210],9,167 to 169 °C,6,0
COc1ccc(C(=O)c2cnn(C)c2O)c(Cl)c1N=S1(=O)CCCC1C (stereo not shown) [Example 218],7,84 to 86 °C,6,0
CCS(=O)(CC)=Nc1c(OC)ccc(C(=O)c2cnn(C)c2O)c1Cl [Example 247],9,165 to 168 °C,10,0
COc1ccc(C(=O)c2c(C)nn(C)c2O)c(Cl)c1N=S1(=O)CCCCC1 [Example 250],8,138 to 140 °C,7,0
